One test has as its system H460. The experiment in a line: MTT viability assay, H460. It counts as cell-based, human. The conditions noted are these: mean ± span, 48 h treatment, cell line with KRAS mutation. As to the method: (§1) NSCLC cell lines were obtained from the Hamon Center for Therapeutic Oncology Research (UT Southwestern Medical Center). IMR-90 human lung fibroblasts were from ATCC (CC-186). All cell lines were maintained and treated in RPMI medium (Cytiva (Shanghai, China), #SH30027), supplemented with 10% heat-inactivated FBS (Millipore Sigma (Darmstadt, Germany), F0394).
(§2) 5000–10,000 cells/0.1 mL/well were seeded in 96-well plates to achieve 70% confluence after 24 h. All drug stock solutions were prepared fresh in DMSO at a concentration of 10 mM. The day after cell plating, we added 0.1 mL of medium containing the appropriate drug dilutions. After 48 h of treatment, 10 μL of MTT solution (5 mg/mL) was added to each well. After 4 h incubation, the medium was aspirated, and the formazan salts dissolved in 200 μL DMSO/well for 10 min at 37 °C. The absorbance was read at 570 nm (OD 570 nm). Data are represented as mean ± SD of two independent experiments.
(§3) Statistical and data analysis was performed using GraphPad Prism (v10). IC50 values were calculated using a three-parameter non-linear regression model with log(inhibitor) vs. response. For the TxrR activity statistics, the groups were compared using a two-way ANOVA followed by Dunnett’s multiple comparisons with alpha = 0.05. The correlation between IC50 values and TxrR activity was achieved using Pearson correlation with alpha = 0.05.

Test [1] deals with TrxR in A549 cell lysates. The experiment in a line: Thioredoxin reductase activity in lysates of treated A549 cells. It counts as cell-based, human. The conditions noted are these: A549 lysate, 24 h treatment at 5 μM. As for the experimental part: (§4) The enzymatic activity of TrxR in the A549 and H522 cell lysates was measured using the TrxR assay Kit (Abcam ab83463) following the manufacturer’s instructions. This kit is based on the TxrR-mediated reduction of the colorless DTNB into TNB2—(yellow). Briefly, cells were plated to reach 70% confluence on a 100-mm dish in one day. They were treated with 5 μM of the gold compounds or the equivalent quantity of DMSO for 24 h. Then, cells were washed in PBS 1X, detached, and lysed in 100 μL of cold TrxR assay buffer supplemented with the Proteinase Inhibitor Cocktail. 20 μg and 40 μg of total proteins were used for the A549 and the H522, respectively. The DTNB substrate was added to samples with or without TrxR inhibitor (provided with the kit) in 96-well plates. The OD412 was measured soon after the substrate addition (A1) and then after 25, 60, 90, and 110 min (An) at 25 °C using a FLUOstar Omega Microplate Reader (BGM Labtech, Chicago, IL, USA). Data analysis was performed following the manufacturer’s instructions. The OD of TNB2, generated by TrxR in every condition, is:ΔA412 nm = (AnAB − AnINH) − (AB − A1INH) where AB is the assay buffer, and INH is the inhibitor. The TrxR activity is:(2) ΔB/Tn−T1×mg of protein lysate×sample dilution factor=(nmol/min)/mg=mU/mg where ΔB is the TNB amount calculated applying ΔA412 nm to TNB standard curve (in nmol), T1 is the time of the first reading (A1AB, and A1INH) (in min), Tn is the time of the second reading (AnAB and AnINH) (in min). The residual TxrR activity (%) was calculated by normalizing the TxrR activity for each compound with the matching vehicle values at every n time point.
as §3

The test system of another test is HCC-44. The test can be described thus: MTT viability assay, HCC-44. It counts as cell-based, human. The settings on record: mean ± span, 48 h treatment, cell line with KRAS mutation. As to the method:
as §1, §2, §3

The next test deals with A549. The experiment in a line: MTT viability assay, A549. The conditions noted are these: mean ± span, 48 h treatment, cell line with KRAS mutation. It counts as cell-based, human. As to the method: as §1, §2, §3
The next test has as its system H661. The experiment in a line: MTT viability assay, H661. The conditions noted are these: mean ± span, 48 h treatment, cell line without KRAS mutation. It counts as cell-based, human. As to the method:
as §1, §2, §3
In general terms: Tetrazolium assays rely on reduction of a dye to a coloured formazan, in cell work by metabolically active cells.

Another test has as its system H1792. The experiment in a line: MTT viability assay, H1792. It counts as cell-based, human. The conditions noted are these: mean ± span, 48 h treatment, cell line with KRAS mutation. As to the method:
as §1, §2, §3

The next test concerns H1993. The experiment in a line: MTT viability assay, H1993. It counts as cell-based, human. The settings on record: mean ± span, 48 h treatment, cell line without KRAS mutation. As for the experimental part: as §1, §2, §3
In a further test the test system is H522. The experiment in a line: MTT viability assay, H522. It counts as cell-based, human. The settings on record: mean ± span, 48 h treatment, cell line without KRAS mutation. As to the method:
as §1, §2, §3

The test system of a further test is H1395. The experiment in a line: MTT viability assay, H1395. It counts as cell-based, human. The conditions noted are these: mean ± span, 48 h treatment, cell line without KRAS mutation. As for the experimental part:
as §1, §2, §3

Test [2] concerns human NSCLC cell lines without KRAS mutations. The test can be described thus: MTT assay, average across NSCLC cell lines without KRAS mutations. It counts as cell-based. The conditions noted are these: average across cell lines without KRAS mutations (H522, H661, H1395, H1993), 48 h, read-out: IC50 * averaged values. As to the method:
as §1, §2, §3

Another test deals with H1355. The test can be described thus: MTT viability assay, H1355. It counts as cell-based, human. The conditions noted are these: mean ± span, 48 h treatment, cell line with KRAS mutation. As to the method:
as §1, §2, §3

Test [3] concerns human NSCLC cell lines with KRAS mutations. The experiment in a line: MTT assay, average across NSCLC cell lines with KRAS mutations. It counts as cell-based. The settings on record: 48 h, read-out: IC50 * averaged values. As for the experimental part: as §1, §2, §3
Test [4] relates to TrxR in H522 cell lysates. The experiment in a line: Thioredoxin reductase activity in lysates of treated H522 cells. The conditions noted are these: H522 lysate, 24 h treatment at 5 μM. It counts as cell-based, human. As to the method: as §4, §3

For `C[n+]1ccn(Cc2ccccc2)[c]1[Au-][Br]` [Compound 4], the IC50 worked out at 11 ± 1.2 µM with H460; 14 ± 1.1 µM with HCC-44; 19 ± 1 µM in the test with A549; 7 ± 0.81 µM in the test on H661; 16 ± 0.94 µM in the test on H1792; 12 ± 1.03 µM with H1993. In addition, the IC50 with H522 turned out to be 5.3 ± 0.88 µM; with H1395 it was 11 ± 0.88 µM; in test [2], 9 µM; in the test with H1355 it was 8.1 ± 0.66 µM; in test [3], 14 µM. For the same molecule, the “Mean Diff. TrxR activity vs. veh” value in [1] (reading at 25 min) is reported as −3.861%; in test [1] (reading at 60 min) it was −2.183%; in [1] (reading at 90 min), −18.13%; in test [1] (reading at 110 min), −21.37%; in test [4] (reading at 25 min), 23.18%; in test [4] (reading at 60 min), 7.116%. In addition, the “Mean Diff. TrxR activity vs. veh” value is given as −0.3654% in test [4] (reading at 90 min) and −18.72% in [4] (reading at 110 min).

Consider “[bis-(1,3-dimethyl-imidazoly-2yl)]gold(I) dibromoaurate [Compound 3]”, for which the IC50 in the test with H460 was 68 ± 0.1 µM; with HCC-44, 10 ± 1.1 µM; in the test on A549 it was 91 ± 1.03 µM; with H661, 27 ± 1.2 µM; in the test on H1792, 50 ± 1.2 µM; in the test with H1993 it was 11 ± 0.96 µM. The concentration for half-maximal inhibition (IC50) with H522 worked out at 15 ± 1.1 µM; in the test on H1395, 11 ± 0.63 µM; in [2], 16 µM; in the test on H1355 it was 9.1 ± 1.03 µM; in [3], 46 µM. Moreover, the “Mean Diff. TrxR activity vs. veh” value is listed as −21.88% in test [1] (reading at 25 min); −4.221% in test [1] (reading at 60 min); −8.42% in test [1] (reading at 90 min); −9.068% in test [1] (reading at 110 min); −44.05% in [4] (reading at 25 min); −47.07% in test [4] (reading at 60 min). Also, the “Mean Diff. TrxR activity vs. veh” value in test [4] (reading at 90 min) is given as −47.31%; in test [4] (reading at 110 min) it was −50.17%.

For orientation: IC50 means the point on the concentration scale where inhibition reaches its midpoint.
